Series [1] can be described thus: Clinic: treatment of oedemas in man. The class given is in vivo.
Series [2] is described as follows: Toxicity, LD50 (DL50) I.P. The note with it: in vivo, ip. From the text: The pharmacological tests carried out particularly with regard to toxicity, the ulcers provoked by aspirin and serotonin, and the anti-inflammatory and antalgic effects, are summarised hereinafter. The methods used are recalled hereinafter.
(§1) Table III hereinbelow deals with the LD50 and with the inhibition of the ulcers caused by aspirin, the inhibition of the oedema provoked by carragenine and cramping (the products to be tested being, in the latter two cases, administered by the IP route at a dose equal to one tenth of the LD50 IP).

Series [3] is described as follows: Inhibition of oedema provoked by carragenine (anti-inflammatory effect). The class given is in vivo. The note with it: IP, dose equal to one tenth of the LD50 IP.
Text: (§2) The techniques relative to the anti-inflammatory effects (oedema caused by carragenine) and antalgic effects (cramping) which were used are the conventional techniques described in the prior art.
as §1

The nature of series [4]: Inhibition of cramping (antalgic effect). As to conditions: IP, dose equal to one tenth of the LD50 IP. The class given is in vivo.
Text: as §2, §1

Series [5] can be described thus: Inhibition of ulcer provoked by aspirin. The class given is in vivo, male Wistar rats. As to conditions: Rattus norvegicus; rats; 100 mg/kg IP at t=0 and again at t=18 h; aspirin 192 mg/kg per os; sacrificed at t=22 h; read-out: Aspirine induced ulcer % inhibition. As for the experimental part: The experiment is carried out on male Wistar rats weighing 180 to 200 g.
At t=0 the rats are made to fast and a first administration of the product to be tested, at a dose of 100 mg/kg, is made IP. At t=18 hours, 2 ml of an ulcer-forming suspension with 192 mg of aspirin/kg are administered per os then a second IP administration of the product to be tested, at a dose of 100 mg/kg, is made.
At t=22 hours, the animals are sacrificed and the ulcers are marked as follows: small punctiform ulcers: mark 1 more extensive ulcers: mark 3 very extensive or very deep ulcers: mark 9
as §1

Series [6] is described as follows: Clinic: treatment of ulcers in man. It counts as in vivo.
A short description of series [7]: Inhibition of ulcer provoked by serotonin (Hashizume technique). The class given is in vivo, male Sprague-Dawley rats. As to conditions: serotonin 60 mg/kg sub-cutaneous. As for the experimental part:
ULCER PROVOKED BY SEROTONIN The technique used is the one described by Hashizume, in Arch. Int. Pharmacodyn. 236, 96-108, (1978). The experiment is carried out on 3 batches of male Sprague-Dawley rats. Each batch includes 20 animals. The first batch constitutes the controls, the second is treated with Carbenoxolone, the third is treated with the product to be tested. The animals are made to fast 24 hours before the experiment. At t=0, the product to be tested is administered by the IP route to the third batch, 100 mg/kg of Carbenoxolone are administered per os to the second batch. At t=+10 mins., a sub-cutaneous injection is made of serotonin at 60 mg/kg in the three batches. At t=+250 mins., the animals are sacrificed. The stomachs are removed and spread out and the ulcers are marked as follows: small ulcer +=1 average ulcer ++=3 large ulcer +++=9 The results relative to the inhibition of the ulcers provoked by serotonin are given in Table IV hereinbelow with the doses of the products tested.

Series [8] in a line: Clinic: treatment of pain in man. The class given is in vivo.

Structures are written as SMILES.

As to `COc1cc2cc[nH]c2c2c1OCCC2O` (stereo not shown) [Example 24], in series [1], the “results in the treatment of oedemas” value is recorded as “excellent results”. In series [2] (I.P.), this molecule yielded an LD50 of 1000 mg/kg. Further, the “Carragheenine oedema % inhibition” value in series [3] came to 40%. In addition, in series [4], the Cramping % inhibition worked out at 60%.

Consider `O=C(O)c1cc2ccc3c(c2[nH]1)CCCO3` [Example 4, 7,8,9-trihydro-pyrano[2,3-g]indole-2-carboxylic acid], for which the “results in the treatment of oedemas” value in series [1] is reported as “excellent results”. This molecule also had an LD50 in series [2] (I.P.) of 600 mg/kg. The “Carragheenine oedema % inhibition” value in series [3] turned out to be 35%. Besides, the Cramping % inhibition in series [4] is listed as 36%. In series [5], the inhibition in vivo at 100 mg/kg worked out at 11%.

For the molecule `COc1cc2cc[nH]c2c2c1OCCC2=NO` [Example 23], in series [2], the DLo was above 800 mg/kg. The “Carragheenine oedema % inhibition” value in series [3] worked out at 52%. The molecule further returned a Cramping % inhibition in series [4] of 51%. Besides, the “results in the treatment of ulcers” value in series [6] is “excellent results”. Moreover, the inhibition in vivo at 100 mg/kg in series [5] is 40%. In addition, the “Serotonine ulcer % inhibition” value in series [7] (92 mg/kg IP) is 52%.

For the molecule `Clc1cc2cc[nH]c2c2c1OCCC2` [Example 8, 5-chloro-7,8,9-trihydro-pyrano[2,3-g]indole], the LD50 in series [2] (I.P.) is 900 mg/kg. In addition, the “Carragheenine oedema % inhibition” value in series [3] is 33%. The Cramping % inhibition in series [4] was 26%. Moreover, the “results in the treatment of ulcers” value in series [6] is listed as “excellent results”. Besides, the inhibition in vivo at 100 mg/kg in series [5] is 42.5%. Also, in series [7] (45 mg/kg IP), the “Serotonine ulcer % inhibition” value stood at 75%.

Take `COc1cc2cc[nH]c2c2c1OCCC2=O` [Example 21, 5-methoxy-9-oxo-7,8-dihydro-pyrano[2,3-g]indole]: in series [2] (I.P.), the LD50 came out at 600 mg/kg. In series [3], the “Carragheenine oedema % inhibition” value came out at 49%. In addition, in series [4], the Cramping % inhibition turned out to be 37%. Further, the “results in the treatment of ulcers” value in series [6] is on record as “excellent results”. Besides, the inhibition in vivo at 100 mg/kg in series [5] came out at 60%. For the same molecule, in series [7] (60 mg/kg IP), the “Serotonine ulcer % inhibition” value came to 87%.

Regarding `c1cc2ccc3c(c2[nH]1)CCCO3` [Example 7, 7,8,9-trihydro-pyrano[2,3-g]indole], the LD50 in series [2] (I.P.) was found to be 750 mg/kg. In series [4], the Cramping % inhibition came to 14%. In addition, the “results in the treatment of ulcers” value in series [6] is reported as “excellent results”. In series [5], the inhibition in vivo at 100 mg/kg was 46%. Moreover, the “Serotonine ulcer % inhibition” value in series [7] (75 mg/kg IP) is listed as 64%.

With `CN(C)Cc1c[nH]c2c3c(ccc12)OCCC3` [Example 14, 3-(7,8,9-trihydro-pyrano[2,3-g]indolyl)-N,N-dimethylmethylamine], the LD50 in series [2] came out at 180 mg/kg. Moreover, the “Carragheenine oedema % inhibition” value in series [3] was 22%. Further, the Cramping % inhibition in series [4] is 67%. Also, the “results in the treatment of ulcers” value in series [6] is “excellent results”. The inhibition in vivo at 100 mg/kg in series [5] was 47.5%.

Take `COc1cc2cc(C(=O)O)[nH]c2c2c1OCCC2` [Example 6, 5-methoxy-7,8,9-trihydro-pyrano[2,3-g]indole-2-carboxylic acid]: the LD50 in series [2] (I.P.) is above 800 mg/kg. Moreover, the Cramping % inhibition in series [4] is given as 66%. Moreover, the “results in the treatment of pain” value in series [8] was “excellent results”. Besides, the inhibition in vivo at 100 mg/kg in series [5] is 23%.

For `O=C(O)c1cc2cc(Cl)c3c(c2[nH]1)CCCO3` [Example 5, 5-chloro-7,8,9-trihydro-pyrano[2,3-g]indole-2-carboxylic acid], in series [1], the “results in the treatment of oedemas” value was “excellent results”. In addition, the LD50 in series [2] (I.P.) was 300 mg/kg. Further, in series [3], the “Carragheenine oedema % inhibition” value turned out to be 30%. Besides, in series [4], the Cramping % inhibition is 35%. Besides, in series [5], the inhibition in vivo at 100 mg/kg is 28%.

Consider `CC1(C)[C@@H](OC(=O)CCC(=O)O)CC[C@]2(C)[C@H]3C(=O)C=C4[C@@H]5C[C@@](C)(C(=O)O)CC[C@]5(C)CC[C@@]4(C)[C@]3(C)CC[C@@H]12` [Carbenoxolone, reference compound], for which the “Serotonine ulcer % inhibition” value in series [7] (Carbenoxolone 60 mg/kg IP as printed in table, method says 100 mg/kg per os) turned out to be 64%.

Molecule `COc1cc2cc(C(=O)O)[nH]c2c2c1OCCC2=O` [Example 19, 5-methoxy-9-oxo-7,8-dihydro-pyrano[2,3-g]indole-2-carboxylic acid] yielded an LD50 in series [2] (I.P.) above 1000 mg/kg. Also, in series [6], the “results in the treatment of ulcers” value is listed as “excellent results”. For the same molecule, the inhibition in vivo at 100 mg/kg in series [5] was 49%.

Consider `COc1cc2cc[nH]c2c2c1OCCC2` [Example 9, 5-methoxy-7,8,9-trihydro-pyrano[2,3-g]indole], for which the “results in the treatment of oedemas” value in series [1] is reported as “excellent results”. In addition, in series [2] (I.P.), the LD50 was found to be 650 mg/kg. Further, the “Carragheenine oedema % inhibition” value in series [3] came out at 39%. In series [4], this molecule showed a Cramping % inhibition of 41%. Also, the inhibition in vivo at 100 mg/kg in series [5] was determined as 51%.

As a reminder, the LD50 is the dose expected to kill half of the subjects tested. A low value points to greater toxicity.

These data come from patent US4680411A, “Pyrano[2,3-g]indoles useful as anti-ulcerous, anti-inflammatory and antalgic agent” (Societe de Recherches Industrielles, priority 1980, dated 1987).
